# Test results from PubChem BioAssay AID493240 (Broad Institute, 2011).
# System: SK-MEL-5 viability, ATP luminescence (CellTiter-Glo), 24 h
# Assay: cytotoxicity in parental SK-MEL-5 melanoma cells – cell-based, CellTiter-Glo, cherry-picked, set 3, orthogonal assay for MITF inhibitor project, dose response (AID 493240)
row,Compound,AC50 [µM]
1,CC(C)(C)c1ccc(Cn2c(=N)n(CC(O)c3ccco3)c3ccccc32)cc1 (stereo not drawn),19.9
2,COC(=O)C1=C(C)N(Cc2ccccc2)C(=NCC(C)C)N[C@H]1c1cccc(C(F)(F)F)c1,17.4
3,Cc1c(N=C2C=CC(=O)c3ccccc32)c(=O)n(-c2ccccc2)n1C,30.9
4,CC1CCC(C(C)C)C(OC(=O)Cn2c(-c3ccc(Cl)cc3)[n+](C)c3ccccc32)C1 (stereo not drawn),10.4
5,CCN1CCN(c2ccc(Nc3ccnc4ccccc34)cc2)CC1,23.8
6,COC(=O)c1c(NC(=O)c2nc3ccccc3s2)sc2c1CC(C)(C)NC2(C)C,22.1
7,Cc1c(OCC(=O)NC2CC(C)(C)NC(C)(C)C2)ccc2c1oc(=O)c1ccccc12,23.2
8,COc1ccc(S(=O)(=O)Nc2ccc(O)c3ccccc23)cc1,14.7
9,O=C1c2cc(F)ccc2-n2c1nc1ccccc1c2=O,5.5
10,Cc1cc(C)c2sc(N(CCCN(C)C)C(=O)COc3ccc(Cl)cc3)nc2c1,24.7
11,COc1ccc2[nH]cc(C(=O)CCl)c2c1,17.4
12,CCc1cc[n+](C2=C([O-])c3ccccc3C(=O)/C2=N\S(=O)(=O)c2cccs2)cc1,5.72
13,CCOC(=O)c1ccc(NC2=CC(=O)C(=O)c3ccccc32)cc1,14.3
14,Cc1c(CCOC(=O)c2ccc(Cl)cc2Cl)sc[n+]1CC(=O)c1ccc(Br)cc1,28.8
15,COc1ccc(C(=O)/C=C/C(=O)N(CC(=O)NC2CCCCC2)Cc2ccc(F)cc2)c(O)c1,12.8
16,C#CC(=O)N(c1ccc(OC)cc1OC)C(C(=O)NC1CCCC1)c1cccs1 (stereo not drawn),19.9
17,CCN1CCN(CCCNC(=O)c2ccc3c(c2)NC(=O)/C(=C\c2cccc(C)c2)S3)CC1,20.3
18,Cc1cc(C)c[n+](C2=C([O-])c3ccccc3C(=O)/C2=N\S(=O)(=O)c2cccs2)c1,15.4
19,Cc1ccc2sc(N(CCCN(C)C)C(=O)c3ccc(S(=O)(=O)N(C)C4CCCCC4)cc3)nc2c1C,26.7
20,CCC(C)(C)c1ccc(OCCCC[n+]2ccccc2)c(C(C)(C)CC)c1,15.3
21,Cc1ccc(C(=O)C[n+]2cc(-c3ccc(C)cc3)n3c2CCCCC3)cc1,14.4
22,CC(=O)N(\C=C/C=C/C=C1\Sc2ccccc2C1=O)c1ccccc1,21.2
23,CCCCN1C=CC(=C2C(=O)c3ccccc3C2=O)C=C1,19.9
24,Cc1ccccc1-c1nc(CN2CCC(C(=O)NCCCN3CCCC(C)C3)CC2)c(C)o1 (stereo not drawn),28.9
25,O=C(NC1=C(Nc2ccc(Cl)cc2)C(=O)c2ccccc2C1=O)c1ccccc1,11.2
26,Cn1cccc1C(=O)NC(=O)COC(=O)c1ccc(S(C)(=O)=O)c([N+](=O)[O-])c1,31.4

row,Compound,AC50 [µM]
1,COc1cccc2sc(N(CCCN(C)C)C(=O)C(c3ccccc3)c3ccccc3)nc12,18.3
2,COc1ccc(-c2cc3c(nn2)-c2ccccc2C3=O)cc1,15
3,O=C(CCl)N(c1ccccc1)C1CCS(=O)(=O)C1 (stereo not drawn),29.9
4,Cc1ccc(C(C)C)c(OCc2nn(CC(=O)c3ccc(OC(F)F)cc3)c3[n+]2CCCCC3)c1,20.2
5,N/C(=N\OC(=O)c1ccccc1Cl)c1ccccn1,28.8
6,CCN1CCN(C2=C(NS(=O)(=O)c3ccc(C)cc3)C(=O)c3ccccc3C2=O)CC1,21.9
7,O=C(Nc1ccc(N2CCN(C(=O)c3ccccc3)CC2)cc1)c1ccc([N+](=O)[O-])o1,28.3
8,CCOc1c(Br)cc(CNC2CCCCCCC2)cc1OC,16.5
9,COc1cc(/C=N/NC(N)=O)c(Br)cc1OCC(=O)Nc1ccccc1C,27.2
10,CCN(CC)CCCNC1=C(Cl)C(=O)c2ccccc2C1=O,5.82
11,CCCCn1c(=N)n(CCOc2ccc(C)cc2)c2ccccc21,17.6
12,COC1=C(Nc2ccccc2)C(=O)c2ccccc2C1=O,5.11
13,CCN1c2ccccc2NC2N=C(OC)C(c3ccccc3)C21 (stereo not drawn),14
14,O=C(Nc1ccccn1)c1ccc(Br)s1,2.08
15,COc1ccc(-n2cc(-c3ccc(C)cc3)[n+]3c2SCC3)cc1,19.9
16,CCN(Cc1ccccc1)c1ccc(/C=N/N=C(N)N)cc1,17.9
17,Cc1ccc(C(=O)N/N=C/c2ccc([N+](=O)[O-])s2)cc1,26.7
18,CCC(=O)N1CCN(c2ccc(NC(=O)c3ccc([N+](=O)[O-])o3)cc2Cl)CC1,24.8
19,CCOc1cc(/C=N/N=C(N)N)ccc1OCc1ccc(Cl)cc1,19.2
20,COc1cc(CNC2CCCC2)cc(Cl)c1OCc1ccccc1Cl,16.8
21,COc1ccc(Oc2cc(NC(=O)c3nn(C)cc3[N+](=O)[O-])cc([N+](=O)[O-])c2)cc1,30.4
22,COC(=O)C1=C(C)N(Cc2ccccc2)C(=NCCc2cccnc2)N[C@H]1c1ccc(Br)cc1,19.2
23,COc1ccc(C(=O)/C=C/C(=O)N(CC(=O)NC2CCCCC2)CC2CCCO2)c(O)c1 (stereo not drawn),11.9
24,Cc1ccc(Cn2c(=N)n(CC(=O)c3ccc([N+](=O)[O-])cc3)c3ccccc32)cc1,21.9
25,O=C1C(Cl)=C(Nc2ccccc2)C(=O)c2ccccc21,6.7
26,COc1ccc(C(=O)/C=C/C(=O)N(CC(=O)NC2CCCCC2)Cc2ccccc2)c(O)c1,12.9

row,Compound,AC50 [µM]
1,CCn1c(/C=C/N(C)c2ccccc2)[n+](CC)c2ccc(Cl)cc21,13.9
2,CCN1CCN(C2=C(NS(=O)(=O)c3ccc(Br)cc3)C(=O)c3ccccc3C2=O)CC1,22.9
3,S=C=Nc1cccc(C2(N3CCCCC3)CCCCC2)c1,20.4
4,COc1ccc(S(=O)(=O)N(C(C)=O)c2ccc(OC(C)=O)c3ccccc23)cc1[N+](=O)[O-],17
5,COc1cccc2c1C(=O)C=C(C)C2=O,18.8
6,COc1ccc(CCn2c(=S)[nH]c3cc(C(=O)NCc4ccco4)ccc3c2=O)cc1OC,22.8
7,O=C1C(Cl)=C(N2CCN(c3ccccc3[N+](=O)[O-])CC2)C(=O)c2ccccc21,10.8
8,CCOC(=O)CSC1=NC(=O)/C(=C/c2ccc(OC)cc2)S1,28.5
9,CC[n+]1c(-c2ccccc2)c2cc(N)ccc2c2ccc(N)cc21,15
10,Cc1ccccc1NC(=O)Cc1nc(COC(=O)c2ccc(S(C)(=O)=O)c([N+](=O)[O-])c2)cs1,27.3
11,Cc1[nH]nc2nc(SCC(=O)NCCC3=CCCCC3)n(-c3ccc(Br)cc3)c(=N)c12,21.5
12,CN(C)CCCNc1nc2sc3c(c2c(=O)n1CCc1ccccc1)CCCCC3,19.8
13,CC(=O)Nc1ccc(Nc2c3ccccc3nc3ccccc23)cc1,16.6
14,Cc1ccc(-c2nnc(SCC(=O)Nc3ccccc3F)o2)cc1,21.7
15,Oc1c(CN2CCCCC2)cc(COCc2ccccc2)c2cccnc12,16.9
16,CC(C)Oc1ccc(C(CCN)C2CCCCC2)cc1 (stereo not drawn),16.2
17,N=c1n(CC(=O)c2ccc(Br)cc2)c2ccccc2n1Cc1ccccc1,18.1
18,COc1ccc(Br)cc1/C=C/C(=O)c1ccc(NC(C)=O)cc1,26.7
19,O=C(N/N=C/c1cccc2cccnc12)c1ccccc1O,32.9
20,O=c1c2ccccc2nc(/C=C/c2ccc([N+](=O)[O-])o2)n1-c1ccc(O)cc1,14.9
21,CC1=NNC(=O)/C1=C\c1cn(-c2ccccc2)nc1-c1ccc(F)cc1,15.5
22,O=C(/C=C/c1cccc([N+](=O)[O-])c1)c1cccs1,27.8
23,Nc1c(N(CCC2=CCCCC2)C(=O)COc2ccc(F)cc2)c(=O)[nH]c(=O)n1Cc1ccccc1,10.9
24,Cc1ccc(-n2cc(CNCCCn3ccnc3C)c(-c3ccc(F)cc3)n2)cc1,17.6
25,Cc1ccc(NC(=O)c2ccc([N+](=O)[O-])s2)cc1S(=O)(=O)N1CCOCC1,16.2
26,COc1ccc(C(CCNC(C)c2ccccc2)c2ccc(F)cc2)cc1 (stereo not drawn),17.6
